The text below walks through data of patent US20090047224A1, “Cosmetic Process for Preventing or Treating the Signs of Skin Ageing or the Orange-Peel Appearance” (L'OREAL, priority 2003, published 2009).

Read-outs that look alike come from different tables or passages of the source.

The test system of series [1] is supercoiled circular DNA (plasmid pBR322). Briefly: Antioxidant effect: DNA-protecting effect under simulated daily UV with ferric ions and riboflavin. Format: biochemical. The settings on record: 30 minutes simulated daily UV. As for the experimental part:
The DNA-protecting effect of the compounds according to the invention was evaluated by comparison with vitamin C and N-acetylcysteine, which are two well-known antioxidants.
In this test, supercoiled circular DNA (plasmid pBR322, Roche) is placed in solution in the presence of 10 mM phosphate buffer (pH=7) and ferric ions (FeCl3, Sigma) at a concentration of 1 μM and in the presence of riboflavin (Sigma) at a concentration of 0.5 μM. The iron amplifies, via the Fenton reaction, the photo-oxidative impact on the DNA. Its presence also makes it possible to evaluate the potential chelating effect of the N-hydroxy imides according to the invention.
The samples are exposed for 30 minutes to simulated daily UV (attenuated UVB+total UVA) obtained using the Oriel solar simulator equipped with a suitable optical filter and a dichroic mirror. The corresponding spectrum is illustrated in FIG. 3.
The DNA is then subjected to electrophoresis on 1% agarose gel to separate the supercoiled forms, relaxed due to induction of breaks and linearized. After treatment in a gel with the fluorescent intercalating agent ethidium bromide, these three forms may be quantified by densitometry of the agarose gel under UV.

Series [2] deals with bovine serum albumin. Description: Anti-glycation effect: inhibition of glycation of bovine serum albumin by D-ribose, measured by fluorescence. Type of series: biochemical. The settings on record: for IC50: BSA + D-ribose 100 mM, 37° C., four weeks; for anti-glycation activity: compared with aminoguanidine. Here is the method:
A solution of bovine serum albumin at 5 or 10 mg/ml dissolved in phosphate-buffered saline is incubated at 37° C. for four weeks in the presence or absence of the test compounds at a concentration of between 20 and 160 μg/ml, and in the presence or absence of D-ribose at 100 mM.
After this incubation, dialysis of each sample is performed for 24 hours against MilliQ water.
The glycation of the BSA is evaluated by measuring the fluorescence of each sample at λex 320/λex 380 nm (which corresponds to the formation of the pentosidine glycation product) and at λex 370/λex 440 nm (which corresponds to AGEs).
The inhibition of glycation corresponds to a decrease in fluorescence compared with the glycated control (treated with sugar). The concentration of compound leading to a 50% inhibition of glycation, or IC50, is determined.
Aminoguanidine is used as positive control and tested at various concentrations of between 20 and 160 μg/ml.

Series [3] in a line: Release of ammonia on heating. The settings on record: in contrast with aminoguanidine. Format: physicochemical.
Where [4] appears, read: fluorescence corresponding to AGEs, read-out: λex 370/λex 440 nm IC50.
[5] abbreviates: fluorescence corresponding to formation of the pentosidine glycation product, read-out: λex 320/λex 380 nm IC50.

Regarding `O=C1O[C@H]([C@@H](O)CO)C(O)=C1O` [Vitamin C, reference compound], the “Score (level of DNA protection)” value in series [1] (Concentration 1 mM) was “+ (The score (+) means that the active agent reduces the photodegradation of the DNA by at least 20%)”. Regarding `O=C1C=C(c2ccccc2)C(=O)N1O` [Compound 3, N-hydroxy-2-phenylmaleimide], the figures for the IC50 in series [2] (setting [4]) and in series [2] (setting [5]) were 40 µM and 30 µM, respectively. Besides, the “Score (level of DNA protection)” value in series [1] (Concentration 0.1 mM) was “++ (The score (++) means that the active agent reduces the photodegradation of the DNA by at least 50%)”. As for `O=C1CCCC(=O)N1O` [Compound 6, N-hydroxy-piperidine-2,6-dione], in series [2], the anti-glycation activity result is “more moderate than aminoguanidine”. As to `O=C1c2cccc3cccc(c23)C(=O)N1O` [Compound 5, N,N-(1,8-naphthaloyl)hydroxylamine], the values for the IC50 in series [2] (setting [4]) and in series [2] (setting [5]) were 45 µM and 0.8 µM, respectively. The “Score (level of DNA protection)” value in series [1] (Concentration 0.01 mM) is “+ (The score (+) means that the active agent reduces the photodegradation of the DNA by at least 20%)”. In the case of `CC(=O)N[C@@H](CS)C(=O)O` [N-Acetylcysteine, reference compound], in series [1] (Concentration 1 mM), the “Score (level of DNA protection)” value is listed as “++ (The score (++) means that the active agent reduces the photodegradation of the DNA by at least 50%)”. For `O=C1c2ccccc2C(=O)N1O` [Compound 4, N-hydroxyphthalimide], the results for the IC50 in series [2] (setting [4]) and in series [2] (setting [5]) were 250 µM and 200 µM, respectively.

`N=C(N)NN` [Aminoguanidine, reference compound]: the IC50 in series [2] (setting [4]) came out at 700 µM; in series [2] (setting [5]) it was 200 µM. The like results for `O=C1C=CC(=O)N1O` [Compound 2, N-hydroxymaleimide] were, in that order, 600 µM and 800 µM.

For `O=C1CCC(=O)N1O` [Compound 1, N-hydroxysuccinimide], in series [2], the anti-glycation activity entry is reported as “more moderate than aminoguanidine”. In addition, in series [3], the “releasing ammonia on heating” value is “not releasing ammonia on heating”.
